Test results: patent publication US20110318412A1, “LOW DOSE DOXEPIN FORMULATIONS, INCLUDING BUCCAL, SUBLINGUAL AND FASTMELT FORMULATIONS, AND USES OF THE SAME TO TREAT INSOMNIA” (Somaxon Pharmaceuticals, Inc., priority 2006, published 2011)
Where a name gives a salt, the structure may show the parent alone.

Legend:
[1] = Wu-Benet, 2005; cited from earlier work
human subjects = experiment: Sleep onset after a 3 mg doxepin hydrochloride capsule in human subjects; type: in vivo; settings: human subjects averaging about 70 kg
[2] = Doxepin plasma concentration after a 3 mg capsule in humans; type: in vivo, human
Description: An estimate of the doxepin plasma concentrations associated with the initiation of sleep was obtained by combining data from multiple studies.
In a separate study, in humans averaging about 70 kg, receiving a 3 mg capsule comprising doxepin hydrochloride, lactose monohydrate fast-flow, sodium lauryl sulfate and magnesium stearate, the average plasma concentration at 60 minutes was approximately 0.1 ng/mL.
Without being limited, it is believed that the doxepin plasma concentration achieved approximately 1 hour after a 3 mg dose is sufficient for sleep initiation. The conclusion is that doxepin plasma concentrations of 0.1 ng/mL or greater were associated with initiation of sleep.

[3] = Measured physicochemical parameters (logP, pKa) used for the simulation
[4] = Measured bioavailability used for the simulation; settings: in vivo

Row | SMILES | Biopharmaceutic Classification System class [1] | solubility (Biopharmaceutic Classification System) [1] | sleep onset compared with a placebo dose (human subjects; 3 mg capsule) | time of sleep onset after dosing (human subjects; 3 mg capsule (doxepin hydrochloride, lactose monohydrate fast-flow, sodium lauryl sulfate, magnesium stearate)) | concentration at 60 min ([2]; human, plasma, oral, humans averaging about 70 kg, 3 mg capsule, separate study) [ng/mL] | logP [3] | pKa [3] | bioavailability [4] [%] | doxepin plasma concentration associated with initiation of sleep ([2]; estimate from combining data from multiple studies) [ng/mL]
1 | CN(C)CCC=C1c2ccccc2COc2ccccc21 (mixture of isomers) [doxepin hydrochloride] | Class One | high solubility | significantly earlier than with a placebo dose | about 60 minutes | ~0.1 |  |  |  | 
2 | CN(C)CCC=C1c2ccccc2COc2ccccc21 (mixture of isomers) [doxepin] |  |  |  |  |  | 4.13 | 8.96 | 29 | ≥ 0.1
